What was measured:
gastric secretion = conditions: in vivo; cited from earlier work
[1] = system: Cytoprotection Against Acidified Aspirin; conditions: Robert, Gastroenterology 76:1227 (1979); cited from earlier work
[2] = system: ethanol-induced gastric lesions; test: Ethanol-induced gastric lesions (80% aqueous ethanol challenge), part A; type: in vivo, rat; conditions: rats; for gastric ulceration: oral 0.3, 1, 3, or 10 mg/kg, 30 min before 1 ml 80% ethanol, examined 1 hr later
Procedure: A. Four groups of rats, standard laboratory animals for determining cytoprotective effects of pharmacological agents, are fasted for 24 hr and then treated orally with (a) […], (b) cimetidine, (c) a cytoprotective prostaglandin, or (d) vehicle (10% Emulphor, 10% EtOH, 80% water). Thirty min later, the rats are challenged with an oral 1 ml dose of 80% aqueous ethanol, a standard agent for inducing gastric cytodestruction. One hr later, the rats are sacrificed (carbon dioxide asphyxiation) and the gastric tissues examined.

[3] = system: Indomethacin-Induced Small Bowel Ulceration; conditions: rat; Kauffman et al. (1979), title; cited from earlier work
gastric acid secretion [4] = test: Inhibition of pentagastrin-stimulated gastric acid secretion in conscious gastric fistula dogs; type: in vivo; conditions: Canis lupus familiaris, dog, intraduodenal, read-out: Effect % inhibition (peak inhibitory effect on gastric acid secretion)
Procedure: To determine the gastric acid secretion inhibitory properties, experiments have been performed on conscious dogs provided with gastric fistulas of conventional type and duodenal fistules, the latter ones used for direct introduodenal administration of the test compounds. After 18 hours starvation and deprivation of water the dogs were given subcutaneous infusion of pentagastrin (1-4 nmol/kg, h) lasting for 6-7 hours. Gastric juice was collected in consecutive 30 minutes samples. An aliquot of each sample was titrated with 0.1 N NaOH to […] for titrable acid concentration using an automatic titrator and pH-meter (Radiometer, Copenhagen, Denmark). Acid output was calculated as mmol H^+ /60 minutes. The percent inhibition compared to control experiments was calculated for each compound and the peak inhibitory effect is given in Table 2 below. The test compounds, suspended in 0.5% Methocel® (methyl cellulose), were given intraduodenally in doses from 4-20 μmol/kg when the secretory response to pentagastrin has reached a steady level. In the test prior known compounds were compared with the compounds of the present invention as will be evident from the Table 2 below. The following gastric acid inhibiting effect data were obtained for a number of compounds tested according to the method described.

[5] = system: ethanol-induced gastric ulceration; test: Ethanol-induced gastric ulceration, less irritant vehicle, lowest dose protecting 50% of animals, part C; type: in vivo, rat; conditions: rats
Text: C. […] The rats are sacrificed one hr after timoprazole administration and the extent of gastric ulceration determined.

[6] = system: ethanol-induced gastric lesions; test: Ethanol challenge with or without indomethacin pretreatment, part D; type: in vivo, rat; conditions: timoprazole 5 mg/kg orally, indomethacin 1 hr prior
Procedure: D. Because mild gastric irritants, e.g., 20% ethanol, are known to stimulate endogenous prostaglandin production, with consequent cytoprotection effects being observed, a further experiment is undertaken to determine whether timoprazole acts as a mild irritant (i.e., by stimulating endogenous cytoprotective prostaglandin production), or exerts a directly cytoprotective effect. In this experiment, rats are treated with timoprazole (5 mg/kg orally), but in each group of rats half the animals are pretreated with a NOSAC, indomethacin, 1 hr prior to treatment with timoprazole. One hr after ethanol challenge, the rats are sacrificed. […] Accordingly, the cytoprotective effects of timoprazole are not mediated by endogenous prostaglandin production.

gastric acid secretion [7] = test: Gastric acid secretion inhibition in the rat; type: in vivo
[8] = system: thermally induced gastric ulceration; test: Thermally induced gastric ulceration (boiling water); type: in vivo, rat; conditions: for ulcer incidence score (ulcers/stomach): rats, control score 8.0
[9] = Gastric volume / gastric emptying experiment, part B; type: in vivo, rat; conditions: rats, oral 0.01, 0.1, or 1.0 mg/kg; 5, 15, and 30 min after ingestion
Procedure: B. A further experiment is undertaken to rule out gastric emptying as a factor in the cytoprotection observed in part A above. In this experiment timoprazole was given orally at 0.01, 0.1, or 1.0 mg/kg to groups of rats and a further group of rats is treated with vehicle (same as in part A) only. As above, the rats are faster for 24 hr prior to treatment. Groups of rats are then sacrificed 5, 15, and 30 min after timoprazole ingestion. […] Accordingly, flluid accumulation in the stomach is not a factor in the cytoprotection observed in part A.

Structure (SMILES): CN/C(=N/CCSCc1nc[nH]c1C)NC#N [cimetidine, N-cyano-N'-methyl-N"[2-[[(5-methyl-1H-imidazol-4-yl)methyl]thio]ethyl]gunanidine]
- inhibition of gastric secretion (gastric secretion): highly potent inhibitor of gastric secretion
- cytoprotective effects [1]: devoid of appreciable cytoprotective effects
- gastric ulceration [2]: all demonstrate gastric ulcers
- number of ulcers ([2]; oral 0.3, 1.0, 3.0 or 10.0 mg/kg, 30 min before 80% ethanol): slight decrease in the number of ulcers
- inhibition of indomethacin-induced small bowel ulceration [3]: Does Not Inhibit

Structure (SMILES): COC(=O)c1cc2nc([S+]([O-])Cc3cc(OC)c(C)cn3)[nH]c2cc1C (stereo not shown) [compound 18, 2-[2-(4-methoxy-5-methyl)-pyridylmethylsulfinyl]-(5-carbomethoxy-6-methyl)-benzimidazole]
- inhibition in vivo at 0.5 µmol/kg (gastric acid secretion [4]; dose 0.5 μol/kg): 90%

Structure (SMILES): [O-][S+](Cc1ccccn1)c1nc2ccccc2[nH]1 (stereo not shown) [timoprazole, 2-[2-pyridylmethylsulfinyl]benzimidazole]
- ED50 ([5]; Rattus norvegicus, read-out: ED50 (lowest dose at which 50% of the animals treated exhibit no gastric ulceration), oral, vehicle 5% EtOH, 1% Emulphor in water): < 1 mg/kg
- reduction in ulceration, oral administration ([5]; oral 1, 3, or 10 mg/kg, 30 min before ethanol challenge): significant reduction in ulceration at all dosages tested
- reduction of number of ulcers, subcutaneous administration ([5]; subcutaneous 1, 3, or 10 mg/kg, 30 min before ethanol challenge): did not significantly reduce the number of ulcers
- difference between rats receiving indomethacin and those not receiving it [6]: no significant difference
- gastric ulceration (dose 0.3 mg/kg) ([2]; oral 0.3 mg/kg, 30 min before 80% ethanol): traces of mild ulceration
- gastric ulceration [2]: no gastric ulceration
- ED50 (gastric acid secretion [7]; in the rat): ~10 mg/kg
- ED50 for gastric acid secretion inhibition relative to lowest cytoprotective dose observed (gastric acid secretion [7]; rat, ratio to lowest cytoprotective dose of part A): at least ten
- ulcer incidence score (ulcers/stomach) ([8]; 0.3 mg/kg): 7.6
- ulcer incidence score (ulcers/stomach) ([8]; 1.0 mg/kg): 5.0
- ulcer incidence score (ulcers/stomach) ([8]; 3.0 mg/kg): 3.9
- ulcer incidence score (ulcers/stomach) ([8]; 10.0 mg/kg): 4.0
- incidence and severity of ulcers as compared to vehicle ([8]; rats, 0.3, 1.0, 3.0, and 10.0 mg/kg): uniform reduction in the incidence and severity of ulcers
- inhibition in vivo at 4 µmol/kg (gastric acid secretion [4]): 50%
- changes in gastric volume versus vehicle [9]: No significant changes in gastric volume

Structure (SMILES): Cc1cc(C)c2[nH]c([S+]([O-])Cc3ccccn3)nc2c1 (stereo not shown) [x (4-CH3,6-CH3, H, H, H, H), 2-[2-pyridylmethylsulfinyl]-(4,6-dimethyl)benzimidazole]
- inhibition in vivo at 4 µmol/kg (gastric acid secretion [4]): 30%

— patent US4359465A, “Methods for treating gastrointestinal inflammation” (The Upjohn Company, priority 1980, dated 1982)
